Laboratory results published in ChEMBL document CHEMBL5727282, “Dihydropyrrolopyridine inhibitors of ROR-gamma” (2019).

Target: T1, Nuclear receptor ROR-gamma (Homo sapiens, UniProt P51449)
T1 sequence (P51449 whole entry): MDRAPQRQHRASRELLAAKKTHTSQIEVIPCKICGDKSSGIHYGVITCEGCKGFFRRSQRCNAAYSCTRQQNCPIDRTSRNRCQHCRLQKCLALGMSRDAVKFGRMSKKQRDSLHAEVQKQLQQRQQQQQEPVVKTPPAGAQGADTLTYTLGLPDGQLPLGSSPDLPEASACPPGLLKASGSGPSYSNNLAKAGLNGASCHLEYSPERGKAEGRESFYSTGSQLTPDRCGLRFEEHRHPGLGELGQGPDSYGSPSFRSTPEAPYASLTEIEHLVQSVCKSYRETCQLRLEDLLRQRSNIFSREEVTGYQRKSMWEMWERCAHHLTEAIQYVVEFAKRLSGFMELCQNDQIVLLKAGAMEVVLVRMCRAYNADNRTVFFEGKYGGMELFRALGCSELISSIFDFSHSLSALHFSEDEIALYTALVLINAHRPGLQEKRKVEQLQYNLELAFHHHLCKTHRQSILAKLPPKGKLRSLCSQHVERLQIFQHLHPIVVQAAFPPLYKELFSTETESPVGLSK
Test: ROR gamma t 5xRORE Assay in Jurkat Cells (Assay 2): Compounds of the present invention were tested for ROR gamma inverse agonist activity in a cell-based, transcriptional activity assay. […] (Promega, Cat. # N1021) using KpnI and HindIII restriction sites. […] Luciferase activity in the conditioned supernatants was determined with NanoGlo assay reagents (Promega, Cat.# N1130).

IC50: < 100 nM
SMILES: CCS(=O)(=O)c1ccc(C2(NC(=O)c3cnc4c(c3)CN(Cc3ccc(C(F)(F)F)cc3)[C@H]4C(C)C)CC2)nc1
